How the values were obtained:
MRC-5 fibroblasts = test: MTT cytotoxicity assay on non-cancerous MRC-5 fibroblasts; assay type: cell-based; settings: 72 h; for primary growth inhibitory screen, cell viability, MRC-5 / effect on non-cancerous fibroblasts: 2.5 µM; for primary growth inhibitory screen, cell viability, MRC-5 / IC50: MTT; for primary growth inhibitory screen, cell viability, MRC-5: mean±SD, untreated control about 100; for IC50: Homo sapiens, MRC5, compounds 1-7 µM, mean ± SD, read-out: IC50 on MRC-5; for effect on non-cancerous fibroblasts: based on the heat map
Protocol: (§1) Cytotoxicity screens were performed to assess the in vitro anticancer activity of the synthesized A-ring-linked 2-pyrazoles of estradiol, the pyrazolocoumarin-estradiol hybrids, and their structurally simplified non-steroidal analogs on various cancerous cell lines such as MCF-7, PC-3, DU145, and HeLa and on non-cancerous MRC-5 fibroblasts. The 2-acetyl-phenol starting materials (4, 5, and 15) were also included for comparison. All compounds were applied in 2.5 µM concentration for 72 h. The obtained cell viability data were used to construct a heat map (Figure 2) in order to select compounds that exert cancer cell line-specific cytotoxicity. […] Furthermore, some compounds discriminated only DU145 cells and could eliminate these type of prostate cancer cells.
(§2) To understand structure-function relationships, we also included the structural analogs of the selected compounds, namely 7a (C-17 acetate of 8a), 8c (C-17 OH counterpart of 7c), and 9a (steroidal pair of 19a) into subsequent analyses. […] For this, compounds were applied on MCF-7, PC-3, DU145, and HeLa and on non-cancerous MRC-5 fibroblasts in various concentrations for 72 h or were treated with cisplatin at different concentrations. On the viability data, dose–response curves were fitted (Figure S1) and IC50 values were calculated accordingly (Table 3). In agreement with the primary cytotoxicity screen (Table S1), the obtained IC50 concentrations clearly indicated which compound was selectively effective on one or more cancer cell lines. […] Typically, acetylated steroidal pyrazoles were less favorable than deacetylated counterparts due to reduced cancer cell selectivity (7c, 10a).
(§3) To evaluate the in vitro pharmacological effects of the synthesized molecules, each compound was first dissolved in cell culture grade DMSO (Sigma) to a final concentration of 10 mM. Using MTT colorimetric assay, the cytotoxicity of these compounds was evaluated on cancerous (MCF-7, HeLa, DU145, PC-3) and non-cancerous (MRC-5) cell lines. Briefly, 5000 cells/well of each cell line were seeded in 96-well plates and were left to grow overnight in a 5% CO2 atmosphere at 37 °C. On the next day, cells were treated with each derivative separately, in case of the primary screen, or only with the selected compounds upon IC50 determination. Cells were incubated with the test compounds for 72 h in a 5% CO2 atmosphere at 37 °C. End point was measured by incubating cells for 1 h with 0.5 mg/mL of MTT reagent (Serva) dissolved in serum free culture medium. The formazan crystals formed by metabolically active cells were later dissolved in DMSO. Optical density of the obtained solutions was measured at 570 nm using a Synergy HTX plate reader. […] The analysis and conclusions were made based on three independent experiments. Normalized data were analyzed and the heat map was constructed using GraphPad Prism 7 software.

PC-3 cells = test: MTT cytotoxicity assay on PC-3 prostate cancer cells; assay type: cell-based; settings: for primary growth inhibitory screen, cell viability, PC-3: 2.5 µM, 72 h, mean±SD, untreated control about 100; for IC50: Homo sapiens, PC-3, 72 h, compounds 1-7 µM, mean ± SD, read-out: IC50 on PC-3
Protocol: as §1, §2, §3

DU145 cells = test: MTT cytotoxicity assay on DU145 prostate cancer cells; assay type: cell-based; settings: for primary growth inhibitory screen, cell viability, DU145: 2.5 µM, 72 h, mean±SD, untreated control about 100; for IC50: Homo sapiens, DU-145, 72 h, compounds 1-7 µM, mean ± SD, read-out: IC50 on DU145
Protocol: as §1, §2, §3

MCF-7 cells = test: MTT cytotoxicity assay on MCF-7 cells; assay type: cell-based; settings: for primary growth inhibitory screen, cell viability, MCF-7: 2.5 µM, 72 h, mean±SD, untreated control about 100; for IC50: Homo sapiens, MCF7, 72 h, compounds 1-7 µM, mean ± SD, read-out: IC50 on MCF-7
Protocol: as §1, §2, §3

HeLa cells = test: MTT cytotoxicity assay on HeLa cells; assay type: cell-based; settings: 72 h; for primary growth inhibitory screen, cell viability, HeLa: 2.5 µM, mean±SD, untreated control about 100; for IC50: Homo sapiens, HeLa, compounds 1-7 µM, mean ± SD, read-out: IC50 on HeLa
Protocol: as §1, §2, §3

| SMILES | primary growth inhibitory screen, cell viability, MRC-5 (MRC-5 fibroblasts) | IC50 (MRC-5 fibroblasts) | primary growth inhibitory screen, cell viability, PC-3 (PC-3 cells) | IC50 (PC-3 cells) | primary growth inhibitory screen, cell viability, DU145 (DU145 cells) | IC50 (DU145 cells) | primary growth inhibitory screen, cell viability, MCF-7 (MCF-7 cells) | IC50 (MCF-7 cells) | primary growth inhibitory screen, cell viability, HeLa (HeLa cells) | IC50 (HeLa cells) | melting point | effect on non-cancerous fibroblasts (MRC-5 fibroblasts) |
| --- | --- | --- | --- | --- | --- | --- | --- | --- | --- | --- | --- | --- |
| CC(=O)O[C@H]1CC[C@H]2[C@@H]3CCc4cc5oc(=O)c6cn(-c7ccccc7)nc6c5cc4[C@H]3CC[C@]12C [Compound 9a] | ≥ 100±8.1 | 6.41 ± 1.1 µM | 82.0±2.2 | 4.22 ± 1 µM | ≥ 100±5.8 | 5.66 ± 1 µM | ≥ 100±2.4 | 4.94 ± 1 µM | 73.8±0.6 | 1.55 ± 1 µM | 198 to 200 °C | – |
| CC(=O)O[C@H]1CC[C@H]2[C@@H]3CCc4cc(O)c(-c5nn(-c6ccc(Cl)cc6)cc5CO)cc4[C@H]3CC[C@]12C [Compound 10c] | 96.4±10.1 | – | 81.6±6.8 | – | 77.3±6.3 | – | 63.2±2.2 | – | 72.4±4.2 | – | 288 to 290 °C | – |
| CC(=O)O[C@H]1CC[C@H]2[C@@H]3CCc4cc5oc(=O)c6cn(-c7ccc(Cl)cc7)nc6c5cc4[C@H]3CC[C@]12C [Compound 9c] | 89.5±8.7 | – | 94.1±4.2 | – | ≥ 100±0.9 | – | 91.1±3.1 | – | 75.7±1.7 | – | 283 to 285 °C | – |
| Cc1ccc(-n2cc(CO)c(-c3cc4c(cc3O)CCCC4)n2)cc1 [Compound 18b, 3-(4′-(Hydroxymethyl)-1′-(4″-tolyl)-1′H-pyrazol-3-yl)-5,6,7,8-tetrahydro-2-naphthol] | ≥ 100±2.6 | > 7 µM | 99.6±7.7 | > 7 µM | 45.3±2.5 | 2.7 ± 1.1 µM | ≥ 100±5.3 | > 7 µM | ≥ 100±8.7 | > 7 µM | 163 to 165 °C | no or very mild effect |
| O=c1oc2cc3c(cc2c2nn(-c4ccccc4)cc12)CCCC3 [Compound 19a, 2-Phenyl-7,8,9,10-tetrahydrobenzo[6,7]chromeno[4,3-c]pyrazol-4(2H)-one] | ≥ 100±3.0 | > 7 µM | 95.4±1.3 | 4.7 ± 1 µM | 21.6±0.5 | 1.41 ± 1.1 µM | ≥ 100±3.9 | 6.83 ± 1.1 µM | ≥ 100±8.7 | > 7 µM | 221 to 223 °C | no or very mild effect |
| C[C@]12CC[C@@H]3c4cc(-c5nn(-c6ccc(Cl)cc6)cc5CO)c(O)cc4CC[C@H]3[C@@H]1CC[C@@H]2O [Compound 11c] | ≥ 100±8.4 | – | 87.1±3.8 | – | 127.1±4.9 | – | ≥ 100±0.7 | – | 77.9±1.5 | – | 240 to 242 °C | – |

— article PMC7571145, “Multistep Synthesis and In Vitro Anticancer Evaluation of 2-Pyrazolyl-Estradiol Derivatives, Pyrazolocoumarin-Estradiol Hybrids and Analogous Compounds” (Molecules, 2020)
